Experimental data as given in patent US6933296B2, “Compounds effective as β2-adrenoreceptor agonists as well as PDE4-inhibitors” (Altana Pharma B.V., priority 2000, dated 2005).

Key:
human eosinophils = experiment: Inhibition of C5a-stimulated chemiluminescence in human eosinophils; assay type: cell-based; settings: 100 nM C5a, 100 nM salbutamol included as additional cAMP trigger; for IC30: Eosinophil, read-out: Inhibition of C5a-stimulated chemiluminescence [-logIC30 (mol/l)] (converted)
Excerpt: c) Inhibition of C5a-stimulated Chemiluminescence in Human Eosinophils
Eosinophils were purified essentially as described in detail elsewhere (Hatzelmann A, Tenor H and Schudt C, Differential effects of non-selective and selective phosphodiesterase inhibitors on human eosinophil functions. Brit J Pharmacol 114: 821-831, 1995). Briefly, total granulocytes were first purified from blood (anticoagulated with 0.3% w/v sodium citrate) by dextran sedimentation, centrifugation on Ficoll Paque and hypotonic lysis of remaining red blood cells. For the further purification of the eosinophil fraction the magnetic cell separation (MACS) system from Miltenyi Biotec (Bergisch-Gladbach, Germany) was applied. Eosinophils were separated from neutrophils by negative selection using anti-CD16 microbeads in a two-step protocol using D- and BS-(formerly called B2-) separation columns. By this method human eosinophils with a purity of >99% and a viability of >97% were obtained.
The chemiluminescence (CL) assay was essentially performed as described (Hatzelmann et al., 1995). Briefly, measurements were performed in a “CL-buffer” (140 mM NaCl, 5 mM KCl, 1 mM MgCl2, 10 mM HEPES, pH 7.4) containing 1 mM CaCl2, 1 mg/ml glucose, 0.05% (w/v) BSA, 10 μM luminol and 4 μM microperoxidase (all values correspond to final concentrations in the assays) in a total volume of 0.5 ml at a cell concentration of 10^6 cells/ml. Aliquots (0.4 ml) of the cell suspension (containing luminol and microperoxidase) were preincubated for 5 min at 37° C. in the absence or presence of inhibitors (0.05 ml). Stock solutions of the inhibitors (10 mM) were prepared in DMSO and diluted 1:100 (v/v) in CL-buffer; subsequent dilutions were made in 1% DMSO/CL-buffer to achieve the final drug concentrations in the assays at a DMSO concentration of 0.1% (v/v) which by itself only weakly affected the CL response. […] After preincubation, the assays were transferred into a “Multi-biolumat LB 9505C” from Berthold (Wildbad, Germany) and stimulated by the addition of 0.05 ml C5a (dissolved in CL-buffer; 100 nM final concentration). CL was continuously recorded for 1 min (C5a) and the AUC (area under the curve) calculated. Inhibition of CL by the compounds under these conditions is given as −log IC30 (mol/l).

β2-adrenoceptor = target: T1, β2-adrenoceptor (Cavia porcellus, UniProt Q8K4Z4); experiment: β2-Adrenoceptor agonistic activity in isolated guinea-pig trachea (relaxation); assay type: cell-based; settings: half-maximal relaxation of isolated guinea-pig trachea pre-treated with 3×10^−7 M RP 73401; for EC50: read-out: β2-Adrenoceptor agonistic affinity [-logEC50 (mol/l)] (converted)
T1 construct: Male guinea-pigs (350-450 g) were killed by a sharp blow on the head and exsanguination, after that the trachea was removed; from tissue; host or cells: isolated guinea-pig trachea (ring chains in organ bath)
Excerpt: b) β2-Adrenoceptor Agonistic Activity in Isolated Guinea-pig Trachea
Male guinea-pigs (350-450 g) were killed by a sharp blow on the head and exsanguination, after that the trachea was removed. After clearing off adhering tissue the trachea was cut into single rings which were tied together forming up to six 4- to 5-ring chains which were suspended in 10-ml organ baths containing Krebs buffer of the following composition (mM): NaCl 118, KCl 5.2, CaCl2 1.9, MgSO4 0.56, NaH2PO4 0.8, NaHCO3 25.0, and glucose 11.1, maintained at 37° C. and continuously aerated with a mixture of 95% O2 and 5% CO2. The end of the chain was tied at the bottom of the tissue bath and connected to a force-displacement transducer (Type K-30, Hugo Sachs Elektronik, Germany) for the recording of isometric tension changes and then placed under 1.5 to 2 g of tension. After a 60 min equilibration period, during which time the preparations were repeatedly washed and the spontaneous contraction plateaud, each tracheal preparation was pre-treated with 3×10^−7 M of RP 73401 for total inhibition of PDE4, which caused relaxation of the tissue between 30 and 40% of maximum (Harris et al., 1989, JPET 251: 199-206). After stabilization of the relaxant response to RP 73401, the test drugs were administered in a cumulative manner (factor 3), each concentration remaining in contact with the trachea until the […] response reached a plateau, before addition of the next higher concentration. At the end of the test drug administration, which caused maximal relaxation the tissue (verified in control experiments for each test drug by additional administration of 10^−6 M (−)-isoprenaline), a high concentration of the β-adrenoceptor antagonist, dl-sotalol (3−6×10^−4 M), was additionally given to assess whether the relaxant response of the trachea to test compound was due to β2-adrenoceptor stimulation. dl-Sotalol nearly completely reversed the relaxation amplitude to the test compounds and was taken as evidence for their β2-adrenoceptor agonistic property. The relaxant response to test compound was expressed as percent determined between the relaxant amplitude after that reached by RP 73401 (0%) and the maximal relaxation obtained prior to dl-sotalol administration (100%). EC50 values for a half-maximal relaxation of the tissue by test compound were graphically interpolated from 12 to 16 individual concentration-response curve. The −log EC50 values (mol/l) thus obtained were taken as a measure for β2-adrenoceptor agonistic activity of the test compounds.

PDE4 = experiment: Inhibition of PDE4 activity (cytosol from human neutrophils, [3H]cAMP hydrolysis); assay type: biochemical; settings: 0.5 μM cAMP, Motapizone 1 μM, DMSO 0.5% for (some of) examples 1-19, 1% from example 20
Experimental: Method for Measuring Inhibition of PDE4 Activity
PDE4 activity was determined as described by Thompson et al. (Adv Cycl Nucl Res 10: 69-92, 1979) with some modifications (Bauer and Schwabe, Naunyn-Schmiedeberg's Arch Pharmacol 311: 193-198, 1980). At a final assay volume of 200 μl (96well microtiter plates) the assay mixture contained 20 mM Tris-HCl (pH 7.4), 5 mM MgCl2, 0.5 μM cAMP, [^3H]cAMP (about 30,000 cpm/assay), the test compound and an aliquot of cytosol from human neutrophils which mainly contains PDE4 activity as described by Schudt et al. (Naunyn-Schmiedeberg's Arch Pharmacol 344: 682-690, 1991); the PDE3-specific inhibitor Motapizone (1 μM) was included to suppress PDE3 activity originating from contaminating platelets.
To minimize problems with the solubility of the compounds, starting from example 20 serial dilutions of the compounds were prepared directly in DMSO and further diluted 1:100 (v/v) in the assays to obtain now the final concentrations of the inhibitors at a DMSO concentration of 1% (v/v) which by itself only slightly affected PDE4 activity.
After preincubation for 5 min at 37° C., the reaction was started by the addition of substrate (cAMP) and the assays were incubated for further 15 min at 37° C. 50 μl of 0.2 N HCl was added to stop the reaction and the assays were left on ice for about 10 min. Following incubation with 25 μg 5′-nucleotidase (Crotalus atrox snake venom) for 10 min at 37° C., the assays were loaded on QAE Sephadex A-25 (1 ml bed volume). The columns were eluted with 2 ml of 30 mM ammonium formiate (pH 6.0) and the eluate was counted for radioactivity. Results were corrected for blank values (measured in the presence of denatured protein) which were below 5% of total radioactivity. […] The IC50-values for the compounds according to the invention for the inhibition of the PDE4 activity were determined from the concentration-inhibition curves by nonlinear-regression.

T1 sequence (Q8K4Z4 whole entry): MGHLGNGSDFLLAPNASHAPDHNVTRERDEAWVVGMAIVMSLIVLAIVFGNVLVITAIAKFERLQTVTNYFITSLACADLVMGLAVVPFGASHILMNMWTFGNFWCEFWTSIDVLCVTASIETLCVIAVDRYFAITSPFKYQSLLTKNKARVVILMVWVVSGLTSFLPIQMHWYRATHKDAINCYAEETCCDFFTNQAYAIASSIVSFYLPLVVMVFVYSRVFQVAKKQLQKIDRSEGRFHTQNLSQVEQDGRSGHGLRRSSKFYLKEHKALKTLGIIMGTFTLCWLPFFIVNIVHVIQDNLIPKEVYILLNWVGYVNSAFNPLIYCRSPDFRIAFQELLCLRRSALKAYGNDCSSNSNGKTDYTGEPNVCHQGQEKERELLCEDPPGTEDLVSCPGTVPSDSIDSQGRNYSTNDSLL

| Compound | melting point [°C] | IC30 (human eosinophils) [nM] | EC50 (β2-adrenoceptor) [nM] | Inhibition of PDE4 activity [-logIC50] (PDE4) | Inhibition of C5a-stimulated chemiluminescence [-logIC30 (mol/l)] (human eosinophils) [mol/l] | β2-Adrenoceptor agonistic affinity [-logEC50 (mol/l)] (β2-adrenoceptor) |
| --- | --- | --- | --- | --- | --- | --- |
| COc1ccc(C2=NN(CCCCNCC(O)c3cc(Cl)c(N)c(Cl)c3)C(=O)[C@H]3CCCC[C@@H]23)cc1OC.O=C(O)/C=C/C(=O)O (relative stereo) [Compound 1, (cis)-2-(4-[{2-(4-amino-3,5-dichlorophenyl)-2-hydroxyethyl}-amino]-1-butyl)-4-(3,4-dimethoxyphenyl)-4a,5,6,7,8,8a-hexahydro-2H-phthalazin-1-one fumarate] | 85 to 88 | 3020 | 12.9 | 6.97 |  |  |
| COc1ccc(C2=NN(C3CCN(C(=O)CCCNCC(O)c4cc(Cl)c(N)c(C#N)c4)CC3)C(=O)[C@@H]3CC=CC[C@H]23)cc1OC.O=C(O)/C=C/C(=O)O (stereo partly drawn) [Compound 20, 2-Amino-3-chloro-5-[2-(4-{4-[(4aS,8aR)-4-(3,4-dimethoxy-phenyl)-1-oxo-4a,5,8,8a-tetrahydro-1H-phthalazin-2-yl]-piperidin-1-yl}-4-oxo-butylamino)-1-hydroxy-ethyl]-benzonitrile fumarate] |  | 79.4 | 2.29 | 10.2 |  |  |
| (cis)-2-(4-[{2-(4-amino-3-chloro-5-cyanophenyl)-2-hydroxyethyl}amino]-1-butyl)-4-(3,4-dimethoxyphenyl)-4a,5,8,8a-tetrahydro-2H-phthalazin-1-one hemifumarate [Compound 11] |  |  |  |  | 6.22 | 8.11 -log(mol/l) |
| (cis)-2-(5-[{2-(4-amino-3-chloro-5-cyanophenyl)-2-hydroxyethyl}amino]-1-pentyl)-4-(3,4-dimethoxyphenyl)-4a,5,8,8a-tetrahydro-2H-phthalazin-1-one hemifumarate [Compound 12] |  |  |  |  | 5.92 | 8.61 -log(mol/l) |
| (cis)-2-(6-[{2-(4-amino-3,5-dichlorophenyl)-2-hydroxyethyl}-amino]-1-hexyl)-4-(3,4-dimethoxyphenyl)-4a,5,6,7,8,8a-hexahydro-2H-phthalazin-1-one hemifumarate [Compound 2] |  |  |  |  | <5 | 6.86 -log(mol/l) |
| (cis)-2-(6-[{2-(4-amino-3,5-dichlorophenyl)-2-hydroxyethyl}-amino]-1-hexyl)-4-(3,4-dimethoxyphenyl)-4a,5,8,8a-tetrahydro-2H-phthalazin-1-one hemifumarate [Compound 6] |  |  |  |  | 6.00 | 7.60 -log(mol/l) |
| (cis)-2-(6-[{2-(4-amino-3-chloro-5-cyanophenyl)-2-hydroxyethyl}amino]-1-hexyl)-4-(3,4-dimethoxyphenyl)-4a,5,8,8a-tetrahydro-2H-phthalazin-1-one hemifumarate [Compound 13] |  |  |  |  | 6.52 | 6.91 -log(mol/l) |
| (cis)-2-(8-[{2-(4-amino-3,5-dichlorophenyl)-2-hydroxyethyl}-amino]-1-octyl)-4-(3,4-dimethoxyphenyl)-4a,5,6,7,8,8a-hexahydro-2H-phthalazin-1-one hemifumarate [Compound 3] |  |  |  |  | 6.52 | 6.77 -log(mol/l) |
| (cis)-4-(3,4-dimethoxyphenyl)-2-(6-[{2-(4-hydroxy-3-hydroxymethylphenyl)-2-hydroxyethyl}amino]-1-hexyl)-4a,5,6,7,8,8a-hexahydro-2H-phthalazin-1-one hemifumarate [Compound 14] |  |  |  |  | 5.30 | 7.24 -log(mol/l) |
